Where two headings read alike, the source gives them in different places.
Test system: HCMV
Format: cell-based
Details: DE
Method: In example herpesvirus PRM assay methods shown herein, cell pellets were lysed in 2% SDS, 100 mM NaCl, 0.5 mM EDTA, 50 mM Tris, pH 8.2, and 50 μg of protein was reduced and alkylated with 25 mM TCEP and 50 mM CAM respectively for 20 min at 70° C. Proteins were then precipitated via methanol chloroform precipitation (Wessel & Flugg, Anal Biochem. 138(1):141-143, 1984), resuspended in 50 mM HEPES, pH 8.2 and digested overnight with trypsin (50:1 protein:enzyme w/w ratio). Digested peptides were desalted by SDB-RPS StageTip as previously described (Lum et al., Cell Syst., 7(6):[…], 2018; Greco et al., Methods Mol Biol 1410:39-63, 2016; Federspiel & Cristea, Methods Mol Biol., 1977:115-143, 2019).
Peptides (1.0 μg on column) were analyzed by LC-MS/MS using a Dionex Ultimate 3000 UHPLC coupled online to an EASYSpray ion source and a Q Exactive HF. Peptides were separated on an EASYSpray C18 column (75 μm×25 cm) heated to 50° C. using a linear gradient of 5% B to 32% B over 60 min at a flow rate of 250 nL/min and were ionized at 1.7 kv. Mobile phase A consisted of 0.1% FA in H2O and mobile phase B consisted of 0.1% FA, 2.9% H2O in ACN.
The PRM method was controlled by a peptide inclusion list with retention time windows of 6 min for selected precursor ions.
The PRM assay was developed and analyzed using the open-source software Skyline (Maclean et al., Bioinformatics 26(7):966-968, 2010). Summed area under the curve of 3-4 transitions per peptide was used for quantitation. Targeted peptides were normalized to host protein loading control peptides. Peptide values for each sample were scaled to the average of each peptide across all runs. The average of multiple peptides was used as the inferred value for the protein measurement when more than one peptide was quantified (Federspiel et al., PLoS Biol. 17(9):e3000437. Doi: 10.1371/journal.pbio.3000437). PRM quantitation data were graphed using the Python Seaborn and Matplotlib libraries.
MRC5 primary human fibroblasts (HFs) (ATCC CCL-171) were used as the model system for HSV-1 and HCMV infections and were cultured in complete growth medium (DMEM supplemented with 10% fetal bovine serum and 1% penicillin-streptomycin antibiotics) at 37° C. and 5% CO2. iSLK.219 cells harboring latent KSHV (a gift from Dr. Britt Glaunsinger, University of California, Berkeley) were grown in complete growth medium supplemented with 500 μg/ml hygromycin (ThermoFisher Scientific, 10687010) at 37° C. and 5% CO2. All cells were used for experiments within a maximum of 10 passages.
Wild type HSV-1 strain 17+ (a gift from Beate Sodeik, Hannover Medical School, Hannover, Germany) was propagated as previously described (Diner et al., 2015). Briefly, PO stocks were generated by electroporating pBAC-HSV-1 into U-2 OS cells. […] In a similar manner, wild type HCMV strain AD169 was produced from BAC electroporation into HFs and working stocks were propagated by infecting HFs at a low level. In both cases, cell-associated virus was released by sonication, combined with supernatant virus, then concentrated by ultracentrifugation (20,000 rpm, 2 hours, 4° C. with SW28 swinging bucket rotor [Beckman Coulter]) over a 10% ficoll (HSV-1) or 20% sorbitol (HCMV) cushion. Virus stock titers were determined by plaque assay for HSV-1 or tissue culture infectious dose (TCID50) for HCMV and infections were performed at a multiplicity of infection (MOI) of 3.
12 hours prior to virus infection or reactivation, cells were treated with either the small molecule drug or DMSO/PBS control at an equivalent volume. […] For infection cycles lasting longer than 24 hours, small molecule drugs were re-added to the cell culture medium every 24 hours. Upon collection, cells were rinsed with PBS, scraped into a microcentrifuge tube, pelleted by centrifugation, and rinsed again with PBS.

In the case of Nc1ccn(C[C@@H](CO)OCP(=O)(O)O)c(=O)n1 [CDV, cidofovir], the “UL71 (P16823) protein, numerical value of heatmap FIG. 6C” value (timepoint 48) is reported as 0.3899, the “UL78 (P16751) protein, numerical value of heatmap FIG. 6C” value (timepoint 48) is reported as 0.6533 and the “UL84 (P16727) protein, numerical value of heatmap FIG. 6C” value (timepoint 48) is reported as 0.1297. The “UL95 (P16801) protein, numerical value of heatmap FIG. 6C” value (timepoint 48) was 0.1215, the “UL96 (P16787) protein, numerical value of heatmap FIG. 6C” value (timepoint 48) was 0.3595 and the “UL97 (P16788) protein, numerical value of heatmap FIG. 6C” value (timepoint 48) was 0.2502. For the same molecule, the “UL98 (P16789) protein, numerical value of heatmap FIG. 6C” value (timepoint 48) was 0.3561, the “UL102 (P16827) protein, numerical value of heatmap FIG. 6C” value (timepoint 48) was 0.7853 and the “UL104 (P16735) protein, numerical value of heatmap FIG. 6C” value (timepoint 48) was 0.06237. For the same molecule, the “UL112/UL113 (P17151) protein, numerical value of heatmap FIG. 6C” value (timepoint 48) was 0.5163, the “UL114 (P16769) protein, numerical value of heatmap FIG. 6C” value (timepoint 48) was 0.6429 and the “UL119/UL118 (P16739) protein, numerical value of heatmap FIG. 6C” value (timepoint 48) was 0.3879. The “UL128 (P16837) protein, numerical value of heatmap FIG. 6C” value (timepoint 48) was 0.163, the “US8 (P09730) protein, numerical value of heatmap FIG. 6C” value (timepoint 48) was 0.9091 and the “US9 (P09729) protein, numerical value of heatmap FIG. 6C” value (timepoint 48) was 0.6112. For the same molecule, the “US12 (P09721) protein, numerical value of heatmap FIG. 6C” value (timepoint 48) was 0.7192, the “US13 (P09720) protein, numerical value of heatmap FIG. 6C” value (timepoint 48) was 0.7254 and the “US14 (P09719) protein, numerical value of heatmap FIG. 6C” value (timepoint 48) was 0.2849. For the same molecule, the “US18 (P69334) protein, numerical value of heatmap FIG. 6C” value (timepoint 48) was 0.7625, the “US22 (P09722) protein, numerical value of heatmap FIG. 6C” value (timepoint 48) was 0.4007 and the “US23 (P09701) protein, numerical value of heatmap FIG. 6C” value (timepoint 48) was 0.4974. For the same molecule, the “US24 (P09700) protein, numerical value of heatmap FIG. 6C” value (timepoint 48) was 0.4753, the “gB (P06473) protein, numerical value of heatmap FIG. 6C” value (timepoint 48) was 0.1893 and the “sp|P09710|IR01_HCMVA (P09710) protein, numerical value of heatmap FIG. 6C” value (timepoint 48) was 0.2164. The “CVC2 (P16726) protein, numerical value of heatmap FIG. 6C” value (timepoint 72) was 0.2298, the “DBP (P17147) protein, numerical value of heatmap FIG. 6C” value (timepoint 72) was 0.7802 and the “HELI (P16736) protein, numerical value of heatmap FIG. 6C” value (timepoint 72) was 0.7131. For the same molecule, the “NEC1 (P16794) protein, numerical value of heatmap FIG. 6C” value (timepoint 72) was 0.2456, the “NEC2 (P16791) protein, numerical value of heatmap FIG. 6C” value (timepoint 72) was 0.6919 and the “RIR1 (P16782) protein, numerical value of heatmap FIG. 6C” value (timepoint 72) was 0.443. For the same molecule, the “TRM1 (P16724) protein, numerical value of heatmap FIG. 6C” value (timepoint 72) was 0.5444, the “UL4 (P17146) protein, numerical value of heatmap FIG. 6C” value (timepoint 72) was 0.08145 and the “UL26 (P16762) protein, numerical value of heatmap FIG. 6C” value (timepoint 72) was 0.4973. The “UL32 (P08318) protein, numerical value of heatmap FIG. 6C” value (timepoint 72) was 0.2303, the “UL34 (P16812) protein, numerical value of heatmap FIG. 6C” value (timepoint 72) was 0.5754 and the “UL35 (P16766) protein, numerical value of heatmap FIG. 6C” value (timepoint 72) was 0.3346. For the same molecule, the “UL38 (P16779) protein, numerical value of heatmap FIG. 6C” value (timepoint 72) was 0.9343, the “UL44 (P16790) protein, numerical value of heatmap FIG. 6C” value (timepoint 72) was 0.5197 and the “UL48 (P16785) protein, numerical value of heatmap FIG. 6C” value (timepoint 72) was 0.4665. The “UL54 (P08546) protein, numerical value of heatmap FIG. 6C” value (timepoint 72) was 1.149, the “UL71 (P16823) protein, numerical value of heatmap FIG. 6C” value (timepoint 72) was 0.768 and the “UL78 (P16751) protein, numerical value of heatmap FIG. 6C” value (timepoint 72) was 1.048. The “UL84 (P16727) protein, numerical value of heatmap FIG. 6C” value (timepoint 72) was 0.3948, the “UL95 (P16801) protein, numerical value of heatmap FIG. 6C” value (timepoint 72) was 0.3335 and the “UL96 (P16787) protein, numerical value of heatmap FIG. 6C” value (timepoint 72) was 0.5111. For the same molecule, the “UL97 (P16788) protein, numerical value of heatmap FIG. 6C” value (timepoint 72) was 0.5258, the “UL98 (P16789) protein, numerical value of heatmap FIG. 6C” value (timepoint 72) was 0.6741 and the “UL102 (P16827) protein, numerical value of heatmap FIG. 6C” value (timepoint 72) was 1.111. For the same molecule, the “UL104 (P16735) protein, numerical value of heatmap FIG. 6C” value (timepoint 72) was 0.4852, the “UL112/UL113 (P17151) protein, numerical value of heatmap FIG. 6C” value (timepoint 72) was 0.7131 and the “UL114 (P16769) protein, numerical value of heatmap FIG. 6C” value (timepoint 72) was 1.008.
